Source: article PMC9889419 (Pharmacological Reports, 2022)
“And” between values parts separate entries of the source, which are not always exact repeats. Identical values can stand only once. Counter-ions that a name gives are not always drawn.

What was measured:
rats [1] = format: in vivo; conditions: ip
CGRP = target: T1, CGRP (Homo sapiens, UniProt O60894+Q16602); assay: Radioligand binding; conditions: 100 μM
T1 construct: purchased Eurofins CEREP
Description: (§1) Radioligand binding. Radioligand binding assays were performed at Eurofins CEREP (France). The results are expressed as a percent of control specific binding (measured specific binding*100/control specific binding) and as a percent inhibition of control specific binding (100-(measured specific binding*100)/control specific binding) obtained in the presence of the test compounds. The IC50 values (concentration causing a half-maximal inhibition of control specific binding) and Hill coefficients (nH) were determined by non-linear regression analysis of the competition curves generated with mean replicate values using Hill equation curve fitting (Y = D + [A-D]/[1 + (C/C50)^nH], where Y = specific binding, A = left asymptote of the curve, D = right asymptote of the curve, C = compound concentration, C50 = IC50, and nH = slope factor). This analysis was performed using software developed at Cerep (Hill software) and validated by comparison with data generated by the commercial software SigmaPlot® 4.0 for Windows® (© 1997 by SPSS Inc.). The inhibition constants (Ki) were calculated using the Cheng Prusoff equation (Ki = IC50/[1 + L/KD], where L = concentration of radioligand in the assay, and KD = affinity of the radioligand for the receptor). A scatchard plot is used to determine the Kd.

μ (MOP) = target: T2, μ (MOP) (Homo sapiens, UniProt P35372); assay: Radioligand binding; conditions: 100 μM
T2 construct: purchased Eurofins CEREP
Description: as §1

NTS1 (NT1) = target: T3, NTS1 (NT1) (Homo sapiens, UniProt P30989); assay: Radioligand binding; conditions: 100 μM
T3 construct: purchased Eurofins CEREP
Description: as §1

GR = target: T4, GR (Homo sapiens, UniProt P04150); assay: Radioligand binding; conditions: 100 μM
T4 construct: purchased Eurofins CEREP
Description: as §1

5-HT1B = target: T5, 5-HT1B (Rattus norvegicus, UniProt P28564); assay: Radioligand binding; conditions: 100 μM
T5 construct: purchased Eurofins CEREP
Description: as §1

[2] = target: T6, norepinephrine transporter (Homo sapiens, UniProt P23975); assay: Radioligand binding; conditions: 100 μM
T6 construct: purchased Eurofins CEREP
Description: as §1

Y1 = target: T7, Y1 (Homo sapiens, UniProt P25929); assay: Radioligand binding; conditions: 100 μM
T7 construct: purchased Eurofins CEREP
Description: as §1

PDGF = assay: Radioligand binding; conditions: 100 μM
Description: as §1

D5 = target: T8, D5 (Homo sapiens, UniProt P21918); assay: Radioligand binding; conditions: 100 μM
T8 construct: purchased Eurofins CEREP
Description: as §1

A2A = target: T9, A2A (Homo sapiens, UniProt P29274); assay: Radioligand binding; conditions: 100 μM
T9 construct: purchased Eurofins CEREP
Description: as §1

NK3 = target: T10, NK3 (Homo sapiens, UniProt P29371); assay: Radioligand binding; conditions: 100 μM
T10 construct: purchased Eurofins CEREP
Description: as §1

BZD (peripheral) = target: T11, BZD (peripheral) (Rattus norvegicus, UniProt P16257); assay: Radioligand binding; conditions: 100 μM
T11 construct: purchased Eurofins CEREP
T11 sequence (P16257 whole entry): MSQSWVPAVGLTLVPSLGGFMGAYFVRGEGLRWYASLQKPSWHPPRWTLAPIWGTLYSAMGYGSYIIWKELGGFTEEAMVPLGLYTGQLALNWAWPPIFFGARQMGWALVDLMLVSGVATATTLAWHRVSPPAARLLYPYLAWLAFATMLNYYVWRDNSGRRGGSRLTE
Description: as §1

δ (DOP) = target: T12, δ (DOP) (Homo sapiens, UniProt P41143); assay: Radioligand binding; conditions: 100 μM
T12 construct: purchased Eurofins CEREP
Description: as §1

Y2 = target: T13, Y2 (Homo sapiens, UniProt P49146); assay: Radioligand binding; conditions: 100 μM
T13 construct: purchased Eurofins CEREP
T13 sequence (P49146 whole entry): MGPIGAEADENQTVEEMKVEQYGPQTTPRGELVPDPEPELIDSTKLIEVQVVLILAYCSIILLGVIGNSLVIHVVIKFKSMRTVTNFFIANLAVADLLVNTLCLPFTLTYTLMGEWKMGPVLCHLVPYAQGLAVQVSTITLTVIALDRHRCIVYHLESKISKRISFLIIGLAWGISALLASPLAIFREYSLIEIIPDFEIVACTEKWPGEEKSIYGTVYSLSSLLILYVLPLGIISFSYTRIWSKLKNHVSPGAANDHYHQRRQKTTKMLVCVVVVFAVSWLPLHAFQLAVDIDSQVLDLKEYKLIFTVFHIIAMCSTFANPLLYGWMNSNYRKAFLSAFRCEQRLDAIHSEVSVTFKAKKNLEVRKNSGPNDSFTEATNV
Description: as §1

MT1 (ML1A) = target: T14, MT1 (ML1A) (Homo sapiens, UniProt P48039); assay: Radioligand binding; conditions: 100 μM
T14 construct: purchased Eurofins CEREP
Description: as §1

GAL1 = target: T15, GAL1 (Homo sapiens, UniProt P47211); assay: Radioligand binding; conditions: 100 μM
T15 construct: purchased Eurofins CEREP
Description: as §1

EP2 = target: T16, EP2 (Homo sapiens, UniProt P43116); assay: Radioligand binding; conditions: 100 μM
T16 construct: purchased Eurofins CEREP
Description: as §1

ETB = target: T17, ETB (Homo sapiens, UniProt P24530); assay: Radioligand binding; conditions: 100 μM
T17 construct: purchased Eurofins CEREP
T17 sequence (P24530 27-442): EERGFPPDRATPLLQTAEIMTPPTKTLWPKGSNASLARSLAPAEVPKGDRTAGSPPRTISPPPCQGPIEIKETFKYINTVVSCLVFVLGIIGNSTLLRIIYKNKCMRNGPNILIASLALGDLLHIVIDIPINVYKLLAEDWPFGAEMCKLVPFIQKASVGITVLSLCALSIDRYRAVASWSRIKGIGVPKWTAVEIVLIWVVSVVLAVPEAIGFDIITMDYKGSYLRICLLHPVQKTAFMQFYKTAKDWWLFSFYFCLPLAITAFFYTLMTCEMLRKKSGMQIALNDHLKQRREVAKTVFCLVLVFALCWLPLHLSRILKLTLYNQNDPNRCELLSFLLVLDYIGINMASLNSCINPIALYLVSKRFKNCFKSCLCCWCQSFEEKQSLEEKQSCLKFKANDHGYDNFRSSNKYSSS
Description: as §1

CB1 = target: T18, CB1 (Homo sapiens, UniProt P21554); assay: Radioligand binding; conditions: 100 μM
T18 construct: purchased Eurofins CEREP
Description: as §1

β1 = target: T19, β1 (Homo sapiens, UniProt P08588); assay: Radioligand binding; conditions: 100 μM
T19 construct: purchased Eurofins CEREP
T19 sequence (P08588 whole entry): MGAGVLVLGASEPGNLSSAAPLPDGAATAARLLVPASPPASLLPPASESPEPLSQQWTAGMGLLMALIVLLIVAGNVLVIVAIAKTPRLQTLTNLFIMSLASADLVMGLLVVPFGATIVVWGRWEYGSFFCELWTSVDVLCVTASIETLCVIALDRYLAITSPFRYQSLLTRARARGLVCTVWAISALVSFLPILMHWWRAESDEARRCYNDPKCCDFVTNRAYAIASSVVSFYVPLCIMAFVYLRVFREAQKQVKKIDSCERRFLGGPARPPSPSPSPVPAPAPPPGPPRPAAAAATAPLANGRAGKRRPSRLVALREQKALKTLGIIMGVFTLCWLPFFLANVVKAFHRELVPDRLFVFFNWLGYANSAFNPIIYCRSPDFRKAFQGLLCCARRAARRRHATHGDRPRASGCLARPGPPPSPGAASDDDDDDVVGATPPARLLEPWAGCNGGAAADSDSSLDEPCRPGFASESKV
Description: as §1

IP (PGI2) = target: T20, IP (PGI2) (Homo sapiens, UniProt P43119); assay: Radioligand binding; conditions: 100 μM
T20 construct: purchased Eurofins CEREP
Description: as §1

CCK1 (CCKA) = target: T21, CCK1 (CCKA) (Homo sapiens, UniProt P32238); assay: Radioligand binding; conditions: 100 μM
T21 construct: purchased Eurofins CEREP
Description: as §1

M3 = target: T22, M3 (Homo sapiens, UniProt P20309); assay: Radioligand binding; conditions: 100 μM
T22 construct: purchased Eurofins CEREP
Description: as §1

PPARγ = target: T23, PPARγ (Homo sapiens, UniProt P37231); assay: Radioligand binding; conditions: 100 μM
T23 construct: purchased Eurofins CEREP
T23 sequence (P37231 whole entry): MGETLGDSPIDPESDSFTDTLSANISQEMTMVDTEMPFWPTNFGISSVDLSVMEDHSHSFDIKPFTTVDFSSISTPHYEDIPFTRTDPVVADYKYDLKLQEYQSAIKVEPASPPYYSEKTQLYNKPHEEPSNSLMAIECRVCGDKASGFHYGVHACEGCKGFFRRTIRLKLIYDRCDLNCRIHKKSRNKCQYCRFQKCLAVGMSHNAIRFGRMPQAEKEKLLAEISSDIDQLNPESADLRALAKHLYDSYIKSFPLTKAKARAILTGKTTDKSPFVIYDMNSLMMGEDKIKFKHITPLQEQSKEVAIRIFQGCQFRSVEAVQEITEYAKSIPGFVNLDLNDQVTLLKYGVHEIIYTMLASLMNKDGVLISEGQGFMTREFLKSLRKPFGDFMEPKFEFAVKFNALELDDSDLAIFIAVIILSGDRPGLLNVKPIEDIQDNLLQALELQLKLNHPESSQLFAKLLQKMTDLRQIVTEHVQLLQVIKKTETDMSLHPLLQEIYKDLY
Description: as §1

A3 = target: T24, A3 (Homo sapiens, UniProt P0DMS8); assay: Radioligand binding; conditions: 100 μM
T24 construct: purchased Eurofins CEREP
T24 sequence (P0DMS8 whole entry): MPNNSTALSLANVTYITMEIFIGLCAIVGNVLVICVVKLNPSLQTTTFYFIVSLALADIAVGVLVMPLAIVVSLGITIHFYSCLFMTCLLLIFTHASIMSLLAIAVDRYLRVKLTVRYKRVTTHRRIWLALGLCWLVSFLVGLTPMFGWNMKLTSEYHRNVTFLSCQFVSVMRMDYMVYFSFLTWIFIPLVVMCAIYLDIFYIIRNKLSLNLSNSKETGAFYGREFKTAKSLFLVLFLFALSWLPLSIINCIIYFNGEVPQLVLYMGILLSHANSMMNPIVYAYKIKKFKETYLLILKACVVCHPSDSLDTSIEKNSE
Description: as §1

PAC1 (PACAP) = target: T25, PAC1 (PACAP) (Homo sapiens, UniProt P41586); assay: Radioligand binding; conditions: 100 μM
T25 construct: purchased Eurofins CEREP
Description: as §1

MTLE mice = MTLE mice acute screen evaluation; format: in vivo
STZ-treated mice = assay: Streptozotocin-induced diabetic neuropathy, von Frey test; format: in vivo; conditions: for elevation of pain threshold (von Frey): STZ-treated mice
Description: Induction of diabetes. To induce diabetes the mice were injected with a single ip streptozotocin (STZ, Sigma-Aldrich, Germany) dose (200 mg/kg) dissolved in 0.1 N citrate buffer. Blood glucose levels were measured 1 h before and repeatedly 1, 2 and 3 weeks after STZ injection using a blood glucose monitoring system (AccuChek Active, Roche, France). Blood samples (5 µL) for the measurement of glucose concentration were obtained from the mouse tail vein. The animals were defined as diabetic when their blood glucose concentration exceeded 300 mg/dL and only those mice were used as diabetic mice in further tests. The body weight of mice was monitored 1 h before and 21 days after STZ injection.
Assessment of tactile allodynia in STZ-treated mice—von Frey test. Mechanical hyperalgesia was tested as previously described in detail [25] using the electronic von Frey device (Bioseb, France). Briefly, in a quiet room, mice were placed in test compartments on an elevated metal mesh grid and allowed to acclimate for 30 min. After a habituation period each mouse was tested 3 times in the plantar region of hind paw, to obtain baseline values. Subsequently, the mice were pre-treated with the tested compound dissolved in saline at doses 1, 10 and 30 mg/kg. Thirty minutes later the animals were tested again and mean values of mechanical withdrawal threshold were obtained for each mouse.

Sigma 2 = target: T26, Sigma 2 (Homo sapiens, UniProt Q5BJF2); assay: Radioligand binding
T26 construct: purchased Eurofins CEREP
T26 sequence (Q5BJF2 whole entry): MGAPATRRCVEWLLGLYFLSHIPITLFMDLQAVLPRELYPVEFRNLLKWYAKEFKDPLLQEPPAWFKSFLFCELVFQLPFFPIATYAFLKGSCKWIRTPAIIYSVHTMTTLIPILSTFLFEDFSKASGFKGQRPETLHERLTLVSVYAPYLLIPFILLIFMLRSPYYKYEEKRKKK
Description: as §1

hNav1.7 sodium channel = target: T27, hNav1.7 sodium channel (Homo sapiens, UniProt Q15858); assay: Nav channel electrophysiology (IonWorks Quattro); format: cell-based
T27 construct: host or cells: CHO cells
T27 sequence (Q15858 whole entry): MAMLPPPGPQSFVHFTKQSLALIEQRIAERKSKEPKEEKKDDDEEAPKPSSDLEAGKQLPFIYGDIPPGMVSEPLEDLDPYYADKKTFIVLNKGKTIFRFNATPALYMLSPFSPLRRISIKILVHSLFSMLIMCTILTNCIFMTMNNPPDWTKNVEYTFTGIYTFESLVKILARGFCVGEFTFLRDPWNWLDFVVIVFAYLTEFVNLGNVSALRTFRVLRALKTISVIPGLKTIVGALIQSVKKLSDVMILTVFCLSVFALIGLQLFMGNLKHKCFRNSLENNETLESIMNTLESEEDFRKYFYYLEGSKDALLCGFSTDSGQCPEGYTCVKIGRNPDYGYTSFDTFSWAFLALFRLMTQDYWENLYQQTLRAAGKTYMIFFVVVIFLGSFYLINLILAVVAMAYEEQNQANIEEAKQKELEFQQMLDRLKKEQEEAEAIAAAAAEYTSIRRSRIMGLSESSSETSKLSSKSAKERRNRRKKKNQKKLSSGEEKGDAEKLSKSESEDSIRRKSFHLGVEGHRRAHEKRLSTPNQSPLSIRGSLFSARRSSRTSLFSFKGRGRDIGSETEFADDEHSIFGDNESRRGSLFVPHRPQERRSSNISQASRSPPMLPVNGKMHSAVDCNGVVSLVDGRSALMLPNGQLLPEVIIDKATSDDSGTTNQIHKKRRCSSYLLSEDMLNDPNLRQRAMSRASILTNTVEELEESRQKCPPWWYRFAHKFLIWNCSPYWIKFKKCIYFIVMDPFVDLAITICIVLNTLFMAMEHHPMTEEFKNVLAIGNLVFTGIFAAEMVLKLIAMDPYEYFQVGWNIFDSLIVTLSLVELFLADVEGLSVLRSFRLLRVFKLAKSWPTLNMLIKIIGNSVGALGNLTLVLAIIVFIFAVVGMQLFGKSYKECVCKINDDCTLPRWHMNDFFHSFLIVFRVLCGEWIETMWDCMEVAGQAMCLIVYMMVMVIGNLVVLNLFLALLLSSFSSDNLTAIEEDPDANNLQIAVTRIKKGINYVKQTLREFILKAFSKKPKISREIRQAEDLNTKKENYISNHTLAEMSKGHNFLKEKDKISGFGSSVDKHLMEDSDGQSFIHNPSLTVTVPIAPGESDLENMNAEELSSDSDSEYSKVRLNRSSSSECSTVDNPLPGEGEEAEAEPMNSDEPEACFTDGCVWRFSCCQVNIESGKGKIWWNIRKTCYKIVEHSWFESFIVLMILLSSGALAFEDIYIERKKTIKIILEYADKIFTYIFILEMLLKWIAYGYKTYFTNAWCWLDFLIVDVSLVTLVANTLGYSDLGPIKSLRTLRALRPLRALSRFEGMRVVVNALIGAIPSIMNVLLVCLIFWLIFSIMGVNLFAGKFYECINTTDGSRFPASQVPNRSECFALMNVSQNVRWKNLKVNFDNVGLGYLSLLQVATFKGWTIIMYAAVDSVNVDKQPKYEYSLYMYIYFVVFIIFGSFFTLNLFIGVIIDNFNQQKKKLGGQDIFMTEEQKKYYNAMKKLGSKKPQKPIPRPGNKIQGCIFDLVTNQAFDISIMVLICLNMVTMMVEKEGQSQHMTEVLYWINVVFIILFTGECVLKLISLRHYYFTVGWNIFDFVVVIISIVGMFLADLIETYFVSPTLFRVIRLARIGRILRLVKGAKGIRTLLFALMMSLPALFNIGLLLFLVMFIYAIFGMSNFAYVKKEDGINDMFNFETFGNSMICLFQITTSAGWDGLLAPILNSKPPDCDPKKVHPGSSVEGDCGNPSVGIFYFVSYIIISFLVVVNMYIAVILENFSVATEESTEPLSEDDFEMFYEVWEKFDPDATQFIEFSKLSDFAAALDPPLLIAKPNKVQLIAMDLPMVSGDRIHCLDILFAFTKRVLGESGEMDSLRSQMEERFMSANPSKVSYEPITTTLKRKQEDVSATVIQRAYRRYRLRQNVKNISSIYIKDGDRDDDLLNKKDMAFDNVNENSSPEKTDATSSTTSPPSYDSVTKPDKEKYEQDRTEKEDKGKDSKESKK

rats [3] = assay: Sciatic nerve ligation (SNL) model, von Frey test; format: in vivo; conditions: rats; for Threshold ± S.E.M. / % Pre-Drug ± S.E.M.: 6 mg/kg b.w., i.p.
hNav1.1 sodium channel = target: T28, hNav1.1 sodium channel (Homo sapiens, UniProt P35498); assay: Nav channel electrophysiology (IonWorks Quattro); format: cell-based
T28 construct: host or cells: CHO cells

T1 sequence (Q16602 23-461): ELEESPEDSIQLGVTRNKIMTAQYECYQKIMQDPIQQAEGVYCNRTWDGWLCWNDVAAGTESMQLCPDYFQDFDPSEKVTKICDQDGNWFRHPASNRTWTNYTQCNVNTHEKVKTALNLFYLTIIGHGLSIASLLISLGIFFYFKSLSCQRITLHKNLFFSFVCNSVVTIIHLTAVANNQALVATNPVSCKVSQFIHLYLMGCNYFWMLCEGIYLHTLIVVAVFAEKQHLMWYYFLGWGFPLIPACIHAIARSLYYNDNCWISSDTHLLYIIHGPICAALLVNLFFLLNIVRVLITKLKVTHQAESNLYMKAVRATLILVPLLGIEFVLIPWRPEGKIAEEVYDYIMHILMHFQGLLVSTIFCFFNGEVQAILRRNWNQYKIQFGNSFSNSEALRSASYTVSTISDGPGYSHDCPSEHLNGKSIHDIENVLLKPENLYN
T1 sequence (O60894 27-148): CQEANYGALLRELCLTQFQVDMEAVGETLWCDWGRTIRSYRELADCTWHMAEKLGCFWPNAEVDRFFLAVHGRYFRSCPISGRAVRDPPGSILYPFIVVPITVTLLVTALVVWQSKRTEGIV

## CCC(CO)NCCOc1c(C)cccc1Cl (stereo not drawn) [Compound 4, R,S-2-((2-(2-chloro-6-methylphenoxy)ethyl)amino)butan-1-ol]
Rats [1]
  TD97: 40.53 mg/kg
Rats [1]; at 40 mg/kg
  Pilocarpine-induced status epilepticus prevention: result: no activity
CGRP
  % of control specific binding: 119.0%
μ (MOP)
  % of control specific binding: 50.1%
NTS1 (NT1)
  % of control specific binding: 128.1%
GR
  % of control specific binding: 111.7%
5-HT1B
  % of control specific binding: 79.7%
[2]
  % of control specific binding: 55.0%
Y1
  % of control specific binding: 122.3%
PDGF
  % of control specific binding: 127.9%
D5
  % of control specific binding: 54.4%
A2A
  % of control specific binding: 71.7%
NK3
  % of control specific binding: 91.8%
BZD (peripheral)
  % of control specific binding: 75.1%
δ (DOP)
  % of control specific binding: 97.0%
Y2
  % of control specific binding: 126.5%
MT1 (ML1A)
  % of control specific binding: 55.1%
GAL1
  % of control specific binding: 123.5%
EP2
  % of control specific binding: 75.4%
ETB
  % of control specific binding: 134.4%
CB1
  % of control specific binding: 126.0%
β1
  % of control specific binding: 64.4%
IP (PGI2)
  % of control specific binding: 97.2%
CCK1 (CCKA)
  % of control specific binding: 99.8%
M3
  % of control specific binding: 63.5%
PPARγ
  % of control specific binding: 92.3%
A3
  % of control specific binding: 115.1%
PAC1 (PACAP)
  % of control specific binding: 107.7%
MTLE mice; at 30 mg/kg, recording period 5–25 min
  MTLE mice acute screen: % of baseline: 80.8 ± 16.8 % of baseline
MTLE mice; mice, ip
  MTLE mice acute screen TPE: 0.25 h

## CCC(CO)NCCOc1c(C)cccc1Cl (stereo not drawn) [KM-408, R,S-2-((2-(2-chloro-6-methylphenoxy)ethyl)amino)butan-1-ol hydrochloride]
STZ-treated mice; 1 mg/kg
  elevation of pain threshold (von Frey): 132%
STZ-treated mice; 10 mg/kg
  elevation of pain threshold (von Frey): 125%
STZ-treated mice; mice, ip
  STZ-induced pain (von Frey): active at: 1 mg/kg
Sigma 2; read-out: % inhibition of specific control binding
  inhibition at 10 µM: 94.8%
Sigma 2; read-out: % of control specific binding
  remaining activity at 10 µM: 94.8%
hNav1.7 sodium channel; 10 Hz
  IC50: 15.4 µM
hNav1.7 sodium channel; Inactivated state
  IC50: < 10 µM
hNav1.7 sodium channel; Tonic block
  IC50: 52 µM
Rats [3]; 0.0 h (pre-drug)
  Threshold ± S.E.M.: 2.88 ± 0.59 g
Rats [3]; 0.5 h
  % Pre-Drug ± S.E.M.: 131 ± 15%
  Threshold ± S.E.M.: 3.07 ± 0.51 g
Rats [3]; 1.0 h
  % Pre-Drug ± S.E.M.: 202 ± 19%
  Threshold ± S.E.M.: 5.94 ± 1.19 g
Rats [3]; 2.0 h
  % Pre-Drug ± S.E.M.: 301 ± 45 %
  Threshold ± S.E.M.: 8.23 ± 1.56 g
Rats [3]; 4.0 h
  % Pre-Drug ± S.E.M.: 260 ± 39 %
  Threshold ± S.E.M.: 7.09 ± 1.31 g
Rats [3]; 6.0 h
  % Pre-Drug ± S.E.M.: 186 ± 31%
  Threshold ± S.E.M.: 5.34 ± 1.32 g
Rats [3]; ip
  SNL TPE: 2 h
Rats [3]; ip, von Frey test
  SNL: active at: 6.0 mg/kg and 6 mg/kg
hNav1.1 sodium channel; 10 Hz
  IC50: 17.5 µM
hNav1.1 sodium channel; Inactivated state
  IC50: < 10 µM
hNav1.1 sodium channel; Tonic block
  IC50: 64.2 µM
